Measurements: US20170050957A1, “4-AMINO-6-(HETEROCYCLIC)PICOLINATES AND 6-AMINO-2-(HETEROCYCLIC)PYRIMIDINE-4-CARBOXYLATES AND THEIR USE AS HERBICIDES” (Dow AgroSciences LLC, priority 2013, published 2017)
Where two headings read alike, the source gives them in different places.

How the values were obtained:
[1] = system: Key Grass and Sedge Weeds as well as Grass Crops; experiment: Post-emergent Test II herbicidal activity (Table 16); format: in vivo; conditions: post-emergence, 336 h, 14 days after application; for pest or weed control at 35 g/ha: 35 g ai/ha; for pest or weed control at 70 g/ha: 70 g ai/ha; for pest or weed control at 140 g/ha: 140 g ai/ha; for pest or weed control at 280 g/ha: 280 g ai/ha
In short: (§1)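 Herbicidal effect scored as percent visual injury, 14 d after post-emergent application. Spray solutions contained acetone, DMSO, isopropyl alcohol, crop oil concentrate and surfactant, applied at 187 L/ha to young plants (1-2 true leaves).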

[2] = system: Key Broadleaf Weed and Crop Species; experiment: Post-emergent Test II herbicidal activity (Table 15); format: in vivo; conditions: post-emergence, 336 h, 14 d; for pest or weed control at 35 g/ha: 35 g ai/ha; for pest or weed control at 70 g/ha: 70 g ai/ha; for pest or weed control at 140 g/ha: 140 g ai/ha; for pest or weed control at 280 g/ha: 280 g ai/ha
In short: as §1

[3] = Cyperus esculentus, yellow nutsedge (Cyperus esculentus), read-out: Visual Growth Reduction (%) 14 Days After Application CYPES
[4] = Echinochloa crus-galli, barnyardgrass (Echinochloa crus-galli), read-out: Visual Growth Reduction (%) 14 Days After Application ECHCG
[5] = Oryza sativa, rice (Oryza sativa), read-out: Visual Growth Reduction (%) 14 Days After Application ORYSA
[6] = Setaria faberi, giant foxtail (Setaria faberi), read-out: Visual Growth Reduction (%) 14 Days After Application SETFA
[7] = Triticum aestivum, wheat, spring (Triticum aestivum), read-out: Visual Growth Reduction (%) 14 Days After Application TRZAS
[8] = Zea mays, maize, corn (Zea mays), read-out: Visual Growth Reduction (%) 14 Days After Application ZEAMX
[9] = Abutilon theophrasti, velvetleaf (Abutilon theophrasti), read-out: Visual Growth Reduction (%) 14 Days After Application, ABUTH
[10] = Amaranthus retroflexus, redroot pigweed (Amaranthus retroflexus), read-out: Visual Growth Reduction (%) 14 Days After Application, AMARE
[11] = Brassica napus, oilseed rape, canola (Brassica napus), read-out: Visual Growth Reduction (%) 14 Days After Application, BRSNN
[12] = Chenopodium album, lambsquarters (Chenopodium album), read-out: Visual Growth Reduction (%) 14 Days After Application, CHEAL
[13] = Euphorbia heterophylla, wild poinsettia (Euphorbia heterophylla), read-out: Visual Growth Reduction (%) 14 Days After Application, EPHHL
[14] = Helianthus annuus, sunflower (Helianthus annuus), read-out: Visual Growth Reduction (%) 14 Days After Application, HELAN

COC(=O)c1nc(-c2cccc3ccsc23)cc(N)c1Cl [Compound 3.27]
85 to 94%: pest or weed control at 35 g/ha [2, 10] | pest or weed control at 280 g/ha [2, 11] | pest or weed control at 70 g/ha [2, 12] | pest or weed control at 280 g/ha [2, 14]
75 to 84%: pest or weed control at 280 g/ha [2, 9] | pest or weed control at 35 g/ha [2, 12] | pest or weed control at 140 g/ha [2, 14]
60 to 74%: pest or weed control at 70 g/ha [2, 11] | pest or weed control at 140 g/ha [2, 11] | pest or weed control at 70 g/ha [2, 14]
0 to 29%: pest or weed control at 35 g/ha [1, 3] | pest or weed control at 70 g/ha [1, 3] | pest or weed control at 140 g/ha [1, 3] | pest or weed control at 280 g/ha [1, 3] | pest or weed control at 35 g/ha [1, 4] | pest or weed control at 70 g/ha [1, 4] | pest or weed control at 140 g/ha [1, 4] | pest or weed control at 280 g/ha [1, 4] | pest or weed control at 35 g/ha [1, 5] | pest or weed control at 70 g/ha [1, 5] | pest or weed control at 140 g/ha [1, 5] | pest or weed control at 280 g/ha [1, 5] | pest or weed control at 35 g/ha [1, 6] | pest or weed control at 70 g/ha [1, 6] | pest or weed control at 140 g/ha [1, 6] | pest or weed control at 280 g/ha [1, 6] | pest or weed control at 35 g/ha [1, 7] | pest or weed control at 70 g/ha [1, 7] | pest or weed control at 140 g/ha [1, 7] | pest or weed control at 280 g/ha [1, 7] | pest or weed control at 35 g/ha [1, 8] | pest or weed control at 70 g/ha [1, 8] | pest or weed control at 140 g/ha [1, 8] | pest or weed control at 280 g/ha [1, 8] | pest or weed control at 35 g/ha [2, 9] | pest or weed control at 70 g/ha [2, 9] | pest or weed control at 35 g/ha [2, 13] | pest or weed control at 70 g/ha [2, 13] | pest or weed control at 140 g/ha [2, 13] | pest or weed control at 280 g/ha [2, 13]
45 to 59%: pest or weed control at 140 g/ha [2, 9] | pest or weed control at 35 g/ha [2, 11] | pest or weed control at 35 g/ha [2, 14]
95 to 100%: pest or weed control at 70 g/ha [2, 10] | pest or weed control at 140 g/ha [2, 10] | pest or weed control at 280 g/ha [2, 10] | pest or weed control at 140 g/ha [2, 12] | pest or weed control at 280 g/ha [2, 12]
